From patent publication US6514989B1, “Aromatic and heteroaromatic substituted 1,2,4-triazolo pyridine derivatives” (Hoffmann-La Roche Inc., priority 2001, dated 2003)

Tests used:
[1] = biological target: T1, human adenosine A1 receptor (Homo sapiens, UniProt P30542); test: Human adenosine A1 receptor radioligand binding assay ([3H]-DPCPX, SPA, CHO cell membranes); settings: recombinant human A1 receptor expressed in CHO cells; [3H]-DPCPX 0.6 nM; Ki from IC50 by Cheng-Prussoff equation; read-out: hA1 Ki
T1 construct: expressed in transfected cells; host or cells: CHO cells, semliki forest virus expression system; membrane preparation
T1 sequence (P30542 1-326): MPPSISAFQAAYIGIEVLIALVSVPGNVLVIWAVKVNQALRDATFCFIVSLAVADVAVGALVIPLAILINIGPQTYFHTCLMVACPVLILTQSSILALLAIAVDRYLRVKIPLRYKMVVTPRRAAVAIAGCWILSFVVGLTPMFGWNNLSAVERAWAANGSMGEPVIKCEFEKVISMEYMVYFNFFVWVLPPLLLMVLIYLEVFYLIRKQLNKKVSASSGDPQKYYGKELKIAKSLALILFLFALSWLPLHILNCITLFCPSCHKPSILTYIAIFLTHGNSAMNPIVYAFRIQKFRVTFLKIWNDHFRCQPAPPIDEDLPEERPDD
Description: Human Adenosine A^1 Receptor
The gene encoding human adenosinie A1 receptor was recombinantly introduced and expressed in chinese hamster ovary (CHO) cells using the semliki forest virus expression system. Cells were harvested, washed twice by centrifugation, homogenized and again washed by centrifugation. The final washed membrane pellet was suspended in a Tris (50 mM) buffer containing 120 mM NaCl, 5 mM KCl, 2 mM CaCl2 and 10 mM MgCl2 (pH 7.4) (buffer A). The [^3H]-DPCPX (([propyl-3H]8-cyclopentyl-1,3-dipropyxanthine); 0.6 nM) binding assay was carried out in 96-well plates in the presence of 2.5 μg of membrane protein, 0.5 mg of Ysi-poly-1-lysine SPA beads and 0.1 U adenosine deaminase in a final volume of 200 μl of buffer A. Non-specific binding was defined using xanthine amine congener (XAC; 2 μM). Compounds were tested at 10 concentrations from 10 μM-0.3 nM. All assays were conducted in duplicate and repeated at least two times. Assay plates were incubated for 1 hour at room temperature before centrifugation and then bound ligand determined using a Packard Topcount scintillation counter. IC50 values were calculated using a non-linear curve fitting program and Ki values calculated using the Cheng-Prussoff equation.
(§1) In accordance with the invention, it has been shown that compounds of formula I have a high affinity toward the A2A receptor. In Table I below specific values of prepared compounds are described, Values of KiHA2A and KiHA1 are shown in Table I for compounds of formula 1. A low Ki value is indicative of a particular compound's high affinity toward a particular receptor and conversely a higher Ki value is indicative of a lower affinity for that compound toward a particular receptor. […] Generally speaking, compounds that have a higher HA1/HA2A ratio are able to give a substantially complete blockade of the HA2A receptor without substantially affecting the A1 receptor.

[2] = biological target: T2, human adenosine A2a receptor (Homo sapiens, UniProt P29274); test: Human adenosine A2a receptor radioligand binding assay ([125I]-AB-MECA, CHO cell membranes); settings: for Selectivity A1/A2a: ratio obtained by dividing KiHA1 by KiHA2A; for Ki: recombinant human A2a receptor expressed in CHO cells, Ki from IC50 by Cheng-Prussoff equation, read-out: hA2a Ki
T2 construct: expressed in transfected cells; host or cells: CHO cells, semliki forest virus expression system; membrane preparation
T2 sequence (P29274 whole entry): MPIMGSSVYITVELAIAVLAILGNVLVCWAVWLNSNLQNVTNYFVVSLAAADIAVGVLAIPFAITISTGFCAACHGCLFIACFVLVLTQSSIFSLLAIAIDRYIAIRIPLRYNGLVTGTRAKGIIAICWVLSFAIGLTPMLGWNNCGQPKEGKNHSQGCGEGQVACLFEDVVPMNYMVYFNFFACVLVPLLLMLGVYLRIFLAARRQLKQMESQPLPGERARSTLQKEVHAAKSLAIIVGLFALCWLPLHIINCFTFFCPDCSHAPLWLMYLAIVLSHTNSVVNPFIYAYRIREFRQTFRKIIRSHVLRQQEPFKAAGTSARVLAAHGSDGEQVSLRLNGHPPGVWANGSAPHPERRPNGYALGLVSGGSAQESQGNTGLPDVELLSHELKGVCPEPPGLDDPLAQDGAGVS
Description: Human Adenosine A2a Receptor
The gene encoding human adenosine A2a receptor was recombinantly introduced and expressed in chinese hamster ovary (CHO) cells using the semliki forest virus expression system. Cells were harvested, washed twice by centrifugation, homogenized and again washed by centrifugation. The final washed membrane pellet was suspended in a Tris (50 mM) buffer containing 120 mM NaCl, 5 mM KCl, 2 mM CaCl2 and 10 mM MgCl2 (pH 7.4) (buffer A). The [^125I]-AB-MECA ([N(6)-(4-amino-3-iodobenzyl)-5′-N-methylcarbamoyl-adenosine]; 0.05 nM) binding assay was carried out in 96-well a plates in the presence of 20 μg of membrane protein and 0.1 U adenosine deaminase in a final volume of […] of buffer A. Non-specific binding was defined using xanthine amine congener (XAC; 2 μM). Compounds were tested at 10 concentrations from 10 μM-0.3 nM. All assays were conducted in duplicate and repeated at least two times. Assay plates were incubated for 1 hour at room temperature before filtration through Whatman Unifilter GF/C 96-well filter plates (preincubated with 0.3% polyethyleneimine). Filters were washed 3 times with 0.3 ml of cold (4° C.) Tris (50 mM)—NaC […]
[…] 1 (120 mM) buffer (pH 7.4). Microscint 40 scintillation fluid (50 μl) was added to each well and the wells sealed. After gentle shaking for 20 min, plates were counted on a Packard Topcount scintillation counter. IC50 values were calculated using a non-linear curve fitting program and Ki values calculated using the Cheng-Prussoff equation.
as §1

| Ki [1] [nM] | Selectivity A1/A2a [2] | Ki [2] [nM] | Structure (SMILES) |
| --- | --- | --- | --- |
| 5210 | 36.5 | 143 | COc1ccc(-c2ccc(OC)c3nc(NC(=O)c4ccc(C)s4)nn23)cc1 [Example 28, 5-Methyl-thiophene-2-carboxylic acid [8-methoxy-5-(4-methoxy-phenyl) [1,2,4]triazolo[1,5-a]pyridin-2-yl]-amide] |
| 2240 | 19.6 | 114 | COc1ccc(-c2ccccc2)n2nc(NC(=O)c3ccc(F)cc3)nc12 [Example 4, 4-Fluoro-N-(8-methoxy-5-phenyl-[1,2,4]triazolo[1,5-a]pyridin-2-yl)-benzamide] |
| 2880 | 21.1 | 136 | COc1ccc(-c2ccccc2)n2nc(NC(=O)c3cccc(Br)c3)nc12 [Example 8, 3-Bromo-N-(8-methoxy-5-phenyl-[1,2,4]triazolo[1,5-a]pyridin-2-yl)-benzamide] |
| 2000 | 11.5 | 173 | CCc1ccc(C(=O)Nc2nc3c(OC)ccc(-c4ccccc4)n3n2)cc1 [Example 10, 4-Ethyl-N-(8-methoxy-5-phenyl-[1,2,4]triazolo[1,5-a]pyridin-2-yl)-benzamide] |
